{
  "source": "patent US20250265708A1",
  "about": "“METHOD AND SYSTEM FOR CONTRACTILITY ASSESSMENT OF CARDIAC ORGANOIDS BASED ON PARTICLE IMAGE VELOCIMETRY, PROGRAM FOR THE SAME, AND RECORDING MEDIUM STORING PROGRAM THEREOF” (Research & Business Foundation SUNGKYUNKWAN UNIVERSITY, priority 2024, published 2025)",
  "tested_on": "cardiac organoid",
  "test": "Drug reaction experiment: PIV-based contractility analysis of cardiac organoid treated with isoprenaline",
  "format": "cell-based, human",
  "text": "Specifically, isoprenaline, which is a widely used […] (inotropic agent), is used to assess contractility of a cardiac organoid in response to drugs. […] As a result, the contraction-relaxation velocity profile and beating image of the cardiac organoids before drug treatment may be confirmed as shown in FIG. 10A and FIG. 10B, after drug treatment as shown in FIG. 10C and FIG. 10D, and 1 day after drug withdrawal as shown in FIG. 10E and FIG. 10F.",
  "key": {"[1]": {"details": "cardiac organoid, after treating for 15 minutes with isoprenaline, vs before drug treatment"}},
  "data": [
    {"compound": "CC(C)NCC(O)c1ccc(O)c(O)c1", "note": "(stereo not shown) [isoprenaline]", "values": [
      {"measurement": "heart beating of the organoid", "setting": "1 day after drug withdrawal", "result": "returned to before the drug treatment"},
      {"measurement": "average contraction duration", "setting": "[1]", "result": "reduced"},
      {"measurement": "contraction time to peak", "setting": "[1]", "result": "reduced"},
      {"measurement": "heart beating rate", "setting": "cardiac organoid, after treating for 15 minutes with isoprenaline, vs before drug treatment (24.3±3.22 BPM)", "result": "increased significantly"}
    ]}
  ]
}
